Results: paper PMC9741652, “CRL2^ZER1/ZYG11B recognizes small N-terminal residues for degradation” (Nature Communications, 2022)
No end group written: not given here.

How the values were obtained:
[1] = target: T1, ZYG11B (residues 490–728) (Homo sapiens, UniProt Q9C0D3); test: ITC of peptides titrated into ZYG11B; settings: ZYG11B residues 490–728, 20 mM Tris-HCl pH 7.5, 150 mM NaCl, 16 °C, repeated at least twice, NB = no detectable binding
T1 construct: ZYG11B (residues 490–728) bearing an N-terminal SELF; 8xHis-SUMO (N, cleaved yes); made in house; host or cells: E. coli BL21 (DE3)
T1 sequence (Q9C0D3 490-728): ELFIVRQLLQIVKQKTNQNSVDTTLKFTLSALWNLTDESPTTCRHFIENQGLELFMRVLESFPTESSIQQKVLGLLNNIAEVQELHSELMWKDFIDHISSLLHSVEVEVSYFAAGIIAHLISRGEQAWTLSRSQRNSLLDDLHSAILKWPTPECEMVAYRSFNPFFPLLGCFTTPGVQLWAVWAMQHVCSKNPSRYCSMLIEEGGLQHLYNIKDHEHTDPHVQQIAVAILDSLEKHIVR
From the text: (§1) To further investigate the binding specificity of ZER1 and ZYG11B, we synthesized a set of eight-residue peptides (sequence: XFLHVGQD, X = any free Nt-residue), and carried out isothermal titration calorimetry (ITC) assays to quantify their binding affinities for ZER1 and ZYG11B. […] The rest of Nt-residues were disallowed for the binding to both ZER1 and ZYG11B (Fig. 1e, and Supplementary Fig. 1c–f).
(§2) ZYG11B (residues 490–728) bearing an N-terminal SELF generated by a modified pET28-MKH8SUMO (Addgene Plasmid #79526) vector and ZER1 (residues 469–766) bearing an N-terminal MEEL sequence generated by pNIC-CH (Addgene Plasmid #26117) vector were used to perform isothermal titration calorimetry (ITC) assays, as previously described. Proteins (concentration 50–70 μM) and peptides (concentration 0.5–1.5 mM) solutions were prepared in an ITC buffer consisting of 20 mM Tris-HCl (pH 7.5) and 150 mM NaCl. The ITC measurements were recorded at 16 °C with a MicroCal PEAQ-ITC instrument (Malvern Panalytical). 1.5 μL of each peptide (except for first injection using 0.5 μL peptide) was titrated into a 300 μL cell of the protein with 120 s incubation time between the injections. The reference power was controlled at […]. The acquired data were analyzed using MicroCal PEAQ-ITC Analysis Software version 1.30. Each experiment was repeated at least twice independently with similar results.

[2] = target: T2, ZER1 D556A (residues 469–766) (Homo sapiens, UniProt Q7Z7L7, D556A); test: ITC of peptides with mutant ZER1 D556A; format: binding; settings: mutant ZER1 residues 469–766
T2 construct: wild-type (WT) and mutant ZER1 (residues 469–766) titrated with SFLHVGQD peptide; made in house; host or cells: E. coli BL21 (DE3)
T2 sequence (Q7Z7L7 469-766 D556A): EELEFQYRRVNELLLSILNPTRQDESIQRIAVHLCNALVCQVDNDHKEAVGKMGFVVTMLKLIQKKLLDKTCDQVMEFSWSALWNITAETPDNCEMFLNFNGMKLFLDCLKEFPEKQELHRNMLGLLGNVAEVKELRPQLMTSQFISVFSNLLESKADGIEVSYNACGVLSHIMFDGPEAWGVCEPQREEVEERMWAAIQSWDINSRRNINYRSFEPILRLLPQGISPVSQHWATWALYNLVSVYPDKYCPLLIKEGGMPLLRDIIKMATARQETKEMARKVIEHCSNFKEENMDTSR
From the text: (§3) To verify the functional importance of the residues involved in substrate binding, we generated single-point mutants of the binding pocket residues in ZER1 and ZYG11B. […] In addition, mutating the third-residue-interacting N553 into alanine caused a significant reduction in substrate binding (Fig. 3e, and Supplementary Fig. 4a–c).
as §2

[3] = target: T3, ZER1 W552A (residues 469–766) (Homo sapiens, UniProt Q7Z7L7, W552A); test: ITC of peptides with mutant ZER1 W552A; settings: mutant ZER1 residues 469–766, NB = no detectable binding
T3 construct: wild-type (WT) and mutant ZER1 (residues 469–766) titrated with SFLHVGQD peptide; made in house; host or cells: E. coli BL21 (DE3)
T3 sequence (Q7Z7L7 469-766 W552A): as the sequence (Q7Z7L7 469-766 D556A) above, with W84A, A88D counted along it
From the text: as §3, §2

[4] = target: T4, ZER1 N597A (residues 469–766) (Homo sapiens, UniProt Q7Z7L7, N597A); test: ITC of peptides with mutant ZER1 N597A; settings: mutant ZER1 residues 469–766, NB = no detectable binding
T4 construct: wild-type (WT) and mutant ZER1 (residues 469–766) titrated with SFLHVGQD peptide; made in house; host or cells: E. coli BL21 (DE3)
T4 sequence (Q7Z7L7 469-766 N597A): as the sequence (Q7Z7L7 469-766 D556A) above, with A88D, N129A counted along it
From the text: as §3, §2

[5] = target: T5, ZER1 E600A (residues 469–766) (Homo sapiens, UniProt Q7Z7L7, E600A); test: ITC of peptides with mutant ZER1 E600A; format: binding; settings: mutant ZER1 residues 469–766
T5 construct: wild-type (WT) and mutant ZER1 (residues 469–766) titrated with SFLHVGQD peptide; made in house; host or cells: E. coli BL21 (DE3)
T5 sequence (Q7Z7L7 469-766 E600A): as the sequence (Q7Z7L7 469-766 D556A) above, with A88D, E132A counted along it
From the text: as §3, §2

ZER1 (residues 469–766) = target: T6, ZER1 (residues 469–766) (Homo sapiens, UniProt Q7Z7L7); test: ITC of peptides titrated into ZER1; format: binding; settings: wild-type ZER1 residues 469–766
T6 construct: made in house; host or cells: E. coli BL21 (DE3)
T6 sequence (Q7Z7L7 469-766): as the sequence (Q7Z7L7 469-766 D556A) above, with A88D counted along it
From the text: as §1, §2

## H-VFLHVGQD [VFLHVGQD]
[1]
  Kd: > 100 µM

## SFLHVGQD [SFLHVGQD]
[2]
  Kd: > 100 µM
[3]
  Kd: > 100 µM
[4]
  Kd: > 100 µM
[5]
  Kd: > 100 µM

## SGRGKQGGKA [H2A peptide]
ZER1 (residues 469–766)
  binding to ZER1, in words: readily bind
